Tests used:
bedstraw = assay: Test B pre/postemergence bedstraw; assay type: in vivo, Galium aparine
Summary of the method: (§1)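 Response is a visual 0-to-10 score relative to untreated plants, where 0 means no effect and 10 means complete control, taken twelve to sixteen days after application. Treatments went onto soil at planting and onto foliage of 1- to 4-leaf plants, using a surfactant-containing non-phytotoxic solvent.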

blackgrass = assay: Test B pre/postemergence blackgrass; assay type: in vivo, Alopecurus myosuroides
Summary of the method: as §1

surinam grass = assay: Test B pre/postemergence surinam grass; assay type: in vivo, Brachiaria decumbens
Summary of the method: as §1

corn = assay: Test B pre/postemergence corn; assay type: in vivo, Zea mays
Summary of the method: as §1

crabgrass = assay: Test B pre/postemergence crabgrass; assay type: in vivo, Digitaria sanguinalis
Summary of the method: as §1

giant foxtail = assay: Test B pre/postemergence giant foxtail; assay type: in vivo, Setaria faberii
Summary of the method: as §1

morningglory = assay: Test B pre/postemergence morningglory; assay type: in vivo, Ipomoea hederacea
Summary of the method: as §1

pigweed = assay: Test B pre/postemergence pigweed; assay type: in vivo, Amaranthus retroflexus
Summary of the method: as §1

rape = assay: Test B pre/postemergence rape; assay type: in vivo, Brassica napus
Summary of the method: as §1

sugar beet = assay: Test B pre/postemergence sugar beet; assay type: in vivo, Beta vulgaris
Summary of the method: as §1

wheat = assay: Test B pre/postemergence wheat; assay type: in vivo, Triticum aestivum
Summary of the method: as §1

wild oat = assay: Test B pre/postemergence wild oat; assay type: in vivo, Avena fatua
Summary of the method: as §1

purple nutsedge = assay: Test B pre/postemergence purple nutsedge; assay type: in vivo, Cyperus rotundus
Summary of the method: as §1

rice = assay: Test B flood test rice; assay type: in vivo, Oryza sativa
Summary of the method: (§2)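 Plants were grown to the 2-leaf stage before treatment with test chemical, then held in a greenhouse for twelve to sixteen days. Injury was visually rated against untreated controls on a 0–10 scale, where 0 is no effect and 10 is complete control.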

smallflower flatsedge = assay: Test B flood test smallflower flatsedge; assay type: in vivo, Cyperus difformis
Summary of the method: as §2

bamyardgrass = assay: Test B flood test barnyardgrass; assay type: in vivo, Echinochloa crus-galli
Summary of the method: as §2

[1] = Postemergence, Rate 125 g/ha, scale 0 to 10, 0 is no effect, 10 is complete control
[2] = Preemergence, Rate 62 g/ha, scale of 0 to 10 where 0 is no effect and 10 is complete control
[3] = Preemergence, Rate 250 g/ha, scale of 0 to 10 where 0 is no effect and 10 is complete control
[4] = Preemergence, Rate 500 g/ha, scale of 0 to 10 where 0 is no effect and 10 is complete control
[5] = Rate 62 g/ha, Postemergence, scale 0 to 10 (0 no effect, 10 complete control)
[6] = Rate 250 g/ha, Postemergence, scale of 0 to 10 where 0 is no effect and 10 is complete control
[7] = Rate 500 g/ha, Postemergence, scale 0 to 10, 0 no effect, 10 complete control
[8] = Rate 62 g/ha, headed Pre-emergence (flood test species), scale 0 to 10 (0 no effect, 10 complete control)
[9] = Rate 125 g/ha, Pre-emergence, flood test species, scale 0 to 10 where 0 is no effect and 10 is complete control
[10] = Rate 250 g/ha, Pre-emergence, flood-test species, scale 0 to 10, 0 is no effect, 10 is complete control
[11] = Rate 500 g/ha, Pre-emergence, flood test species, scale 0 to 10 (0 no effect, 10 complete control)

Cc1c(-n2c(=O)on(C(=O)N(c3ccc(Cl)cc3)C(C)C)c2=O)ccc2ccccc12 [Compound 336]
0: Plant response rating, Bedstraw (bedstraw; [1]) | Bedstraw plant response rating (bedstraw; [2]) | Bedstraw plant response rating (0 to 10 scale) (bedstraw; Preemergence, Rate 125 g/ha) | Bedstraw plant response rating (bedstraw; [3]) | Bedstraw plant response rating (bedstraw; [4]) | Bedstraw plant response rating (bedstraw; [5]) | Plant response rating, Bedstraw (bedstraw; [6]) | Plant response rating, Bedstraw (bedstraw; [7]) | Plant response rating, Blackgrass (blackgrass; [1]) | Blackgrass plant response rating (blackgrass; [2]) | Blackgrass plant response rating (0 to 10 scale) (blackgrass; Preemergence, Rate 125 g/ha) | Blackgrass plant response rating (blackgrass; [3]) | Blackgrass plant response rating (blackgrass; [4]) | Blackgrass plant response rating (blackgrass; [5]) | Plant response rating, Blackgrass (blackgrass; [6]) | Plant response rating, Blackgrass (blackgrass; [7]) | Plant response rating, B. signalgrass (surinam grass; [1]) | B. signalgrass plant response rating (surinam grass; [2]) | B. signalgrass plant response rating (0 to 10 scale, 0 is no effect, 10 is complete control) (surinam grass; Preemergence, Rate 125 g/ha) | B. signalgrass plant response rating (surinam grass; [3]) | B. signalgrass plant response rating (surinam grass; [4]) | B. signalgrass plant response rating (surinam grass; [5]) | Plant response rating, B. signalgrass (surinam grass; [6]) | Plant response rating, B. signalgrass (surinam grass; [7]) | Plant response rating, Corn (corn; [1]) | Corn plant response rating (corn; [2]) | Corn plant response rating (0 to 10 scale) (corn; Preemergence, Rate 125 g/ha) | Corn plant response rating (corn; [3]) | Corn plant response rating (corn; [4]) | Corn plant response rating (corn; [5]) | Plant response rating, Corn (corn; [7]) | Plant response rating, Crabgrass (crabgrass; [1]) | Crabgrass plant response rating (crabgrass; [2]) | Crabgrass plant response rating (0 to 10 scale) (crabgrass; Preemergence, Rate 125 g/ha) | Crabgrass plant response rating (crabgrass; [3]) | Crabgrass plant response rating (crabgrass; [4]) | Crabgrass plant response rating (crabgrass; [5]) | Plant response rating, Crabgrass (crabgrass; [7]) | Plant response rating, Giant foxtail (giant foxtail; [1]) | Giant foxtail plant response rating (giant foxtail; [2]) | Giant foxtail plant response rating (0 to 10 scale) (giant foxtail; Preemergence, Rate 125 g/ha) | Giant foxtail plant response rating (giant foxtail; [3]) | Giant foxtail plant response rating (giant foxtail; [4]) | Giant foxtail plant response rating (giant foxtail; [5]) | Plant response rating, Giant foxtail (giant foxtail; [7]) | Plant response rating, Morningglory (morningglory; [1]) | Morningglory plant response rating (morningglory; [2]) | Morningglory plant response rating (0 to 10 scale) (morningglory; Preemergence, Rate 125 g/ha) | Morningglory plant response rating (morningglory; [3]) | Morningglory plant response rating (morningglory; [4]) | Morningglory plant response rating (morningglory; [5]) | Plant response rating, Morningglory (morningglory; [7]) | Plant response rating, Redroot pigweed (pigweed; [1]) | Redroot pigweed plant response rating (pigweed; [2]) | Redroot pigweed plant response rating (0 to 10 scale) (pigweed; Preemergence, Rate 125 g/ha) | Redroot pigweed plant response rating (pigweed; [3]) | Redroot pigweed plant response rating (pigweed; [4]) | Redroot pigweed plant response rating (pigweed; [5]) | Plant response rating, Redroot pigweed (pigweed; [7]) | Plant response rating, Rape (rape; [1]) | Rape plant response rating (rape; [2]) | Rape plant response rating (0 to 10 scale) (rape; Preemergence, Rate 125 g/ha) | Rape plant response rating (rape; [3]) | Rape plant response rating (rape; [4]) | Rape plant response rating (rape; [5]) | Plant response rating, Rape (rape; [7]) | Plant response rating, Sugarbeets (sugar beet; [1]) | Sugarbeets plant response rating (sugar beet; [2]) | Sugarbeets plant response rating (0 to 10 scale) (sugar beet; Preemergence, Rate 125 g/ha) | Sugarbeets plant response rating (sugar beet; [3]) | Sugarbeets plant response rating (sugar beet; [4]) | Sugarbeets plant response rating (sugar beet; [5]) | Plant response rating, Sugarbeets (sugar beet; [7]) | Plant response rating, Wheat (wheat; [1]) | Wheat plant response rating (wheat; [2]) | Wheat plant response rating (0 to 10 scale) (wheat; Preemergence, Rate 125 g/ha) | Wheat plant response rating (wheat; [3]) | Wheat plant response rating (wheat; [4]) | Wheat plant response rating (wheat; [5]) | Plant response rating, Wheat (wheat; [7]) | Plant response rating, Wild oats (wild oat; [1]) | Wild oats plant response rating (wild oat; [2]) | Wild oats plant response rating (0 to 10 scale) (wild oat; Preemergence, Rate 125 g/ha) | Wild oats plant response rating (wild oat; [3]) | Wild oats plant response rating (wild oat; [4]) | Wild oats plant response rating (wild oat; [5]) | Plant response rating, Wild oats (wild oat; [7]) | Plant response rating, Nutsedge (purple nutsedge; [1]) | Nutsedge plant response rating (purple nutsedge; [2]) | Nutsedge plant response rating (0 to 10 scale) (purple nutsedge; Preemergence, Rate 125 g/ha) | Nutsedge plant response rating (purple nutsedge; [3]) | Nutsedge plant response rating (purple nutsedge; [4]) | Nutsedge plant response rating (purple nutsedge; [5]) | Plant response rating, Nutsedge (purple nutsedge; [7]) | Rice plant response rating (rice; [8]) | Rice plant response rating (rice; [9]) | Rice plant response rating (rice; [10]) | Rice plant response rating (rice; [11]) | S. Flatsedge plant response rating (smallflower flatsedge; [8]) | S. Flatsedge plant response rating (smallflower flatsedge; [9]) | S. Flatsedge plant response rating (smallflower flatsedge; [10]) | S. Flatsedge plant response rating (smallflower flatsedge; [11]) | Barnyardgrass plant response rating (bamyardgrass; [8]) | Barnyardgrass plant response rating (bamyardgrass; [9]) | Barnyardgrass plant response rating (bamyardgrass; [10]) | Barnyardgrass plant response rating (bamyardgrass; [11])

— patent US6737383B1, “Herbicidal oxadiazolidines” (priority 1999, dated 2004)
